Results: patent US20140100156A1 (SANOFI, priority 2012, published 2014)

Legend:
Type in all cases: in vivo
female NMRI-mice = test: Gastric emptying and intestinal passage in mice
Protocol: Female NMRI-mice of a body weight between 20 and 30 g were used. Mice were adapted to housing conditions for at least one week.
Mice were overnight fasted, while water remained available all the time. On the study day, mice were weighed, single-caged and allowed access to 500 mg of feed for 30 min, while water was removed. At the end of the 30 min feeding period, remaining feed was removed and weighed. 60 min later, a coloured, non-caloric bolus was instilled via gavage into the stomach. The test compound/reference compound or its vehicle in the control group was administered subcutaneously, to reach Cmax when coloured bolus was administered. After another 30 min, the animals were sacrificed and the stomach and the small intestine prepared. The filled stomach was weighed, emptied, carefully cleaned and dried and reweighed. The calculated stomach content indicated the degree of gastric emptying. The small intestine was straightened without force and measured in length. Then the distance from the gastric beginning of the gut to the tip of the farthest travelled intestinal content bolus was measured. The intestinal passage was given as relation in percent of the latter distance and the total length of the small intestine.
Statistical analyses were performed with Everstat 6.0 by 1-way-ANOVA, followed by Dunnetts or Newman-Keuls as post-hoc test, respectively. Differences were considered statistically significant at the p<0.05 level. As post hoc test Dunnet's Test was applied to compare versus vehicle control, only. Newman-Keul's Test was applied for all pairwise comparisons (i.e. versus vehicle and reference groups).
30 min later, the assessment of stomach contents and intestinal passage was done (FIG. 1a, b).
In another study, female NMRI-mice, weighing on average 25-30 g, were administered subcutaneously 0.02 and 0.002 mg/kg of SEQ ID NO: 97 or phosphate buffered saline (vehicle control), 30 min prior to the administration of the coloured bolus. 30 min later, the assessment of stomach contents and intestinal passage was done (FIG. 1c, d).

[1] = system: female leptin-receptor deficient diabetic db/db mice; test: Acute effect on blood glucose in fed female db/db mice
From the text: Female BKS.Cg-m+/+Leprdb/J (db/db) and BKS.Cg-m+/+Leprdb/+ (lean control) mice were obtained from Charles River Laboratories, Germany, at an age of 9-10 weeks. The animals were housed in groups in a specific pathogen-free barrier facility on a 12-h light/dark cycle with free access to water and rodent-standard chow. After 1 week of acclimatization, blood samples were drawn from the tail without anaesthesia and blood glucose (method: d-glucose hexokinase, hemolysate, AU640 Beckman Coulter) and HbA1c level (method: hemolysate, Cobas6000 c501, Roche Diagnostics, Germany) were determined.
Db/db mice were stratified to treatment groups (n=8), so that each group had similar baseline blood glucose and HbA1c levels.
1) Acute effect on blood glucose in fed db/db mice: initial blood samples were taken just before first administration (s.c.) of vehicle (phosphate buffer solution) or exendin-4 derivatives at doses of 3, 10, and 100 μg/kg (dissolved in phosphate puffer), respectively. The volume of administration was 5 mL/kg. The animals had access to water and chow during the experiment, food consumption was determined at all time points of blood sampling. Blood glucose levels were measured at t=0.5 h, t=1 h, t=2 h, t=4 h, t=6 h, t=8 h, and t=24 h. Blood sampling was performed by tail incision without anaesthesia.
(§1) Statistical analyses were performed with Everstat 6.0 by repeated measures two-way ANOVA and Dunnetts post-hoc analyses. Differences versus vehicle-treated db/db control mice were considered statistically significant at the p<0.05 level.
After blood sampling to determine the blood glucose baseline level, fed diabetic female db/db mice were administered 3, 10 or 100 μg/kg of SEQ ID NO: 97 or phosphate buffered solution (vehicle-treated db/db control) subcutaneously. At predefined time points, more blood samples were taken to measure blood glucose and generate the blood glucose profile over 24 h. […]

[2] = Subchronic effect on body weight and body fat in female DIO C57BL/6NCrl mice; details: 4 weeks, mean
Protocol: Female C57BL/6NCrl mice were housed in groups in a specific pathogen-free barrier facility on a 12-h light/dark cycle with free access to water and high-fat diet. After 10 months on high-fat diet, mice were stratified to treatment groups (n=8), so that each group had similar mean body weight.
2) Subchronic effect on body weight: all animals were treated once daily s.c. in the morning, at the beginning of the light phase (12 h lights on) with either vehicle or exendin-4 derivatives at the abovementioned doses for 4 weeks. Body weight was recorded daily. On days 6 and 28, total fat mass was measured by nuclear magnetic resonance (NMR) using a Bruker minispec (Ettlingen, Germany).
as §1, with “analyses (glucose profile) and 1-way-ANOVA, followed by Dunnetts post-hoc test (body weight, body fat).” for “analyses.”, “DIO” for “db/db”
Female obese C57BL/6NCrl mice were treated for 4 weeks once daily subcutaneously in the morning, at the beginning of the light phase (12 h lights on) with 3, 10 or 100 μg/kg SEQ ID NO: 97 or vehicle. Body weight was recorded daily, and body fat content was determined before the start of treatment and after 4 weeks of treatment.

[3] = 0.002 mg/kg s.c., versus PBS-control (second study)
[4] = 0.02 mg/kg s.c., study with reference compound Liraglutide, versus vehicle
[5] = 0.02 mg/kg s.c., versus PBS-control (second study)

SEQ ID NO: 97: exendin-4 derivative, K(γE-x53) in position 14 (HXQGTFTSDLSKQKDSRRAQDFIEWLKNGGPSSGAPPPS; K14 side chain γE-x53; Exendin-4-analogue)
gastric content increased by (female NMRI-mice; [3]): 47% | intestinal passage reduced by (female NMRI-mice; [3]): 63% | gastric content increased by (female NMRI-mice; [4]): 90% | intestinal passage reduced by (female NMRI-mice; [4]): 67% | gastric content increased by (female NMRI-mice; [5]): 37% | intestinal passage reduced by (female NMRI-mice; [5]): 43% | duration of decrease in blood glucose compared to db/db control mice ([1]; high dose (100 μg/kg s.c.)): > 24 h | duration of decrease in blood glucose compared to db/db control mice ([1]; low dose (3 μg/kg s.c.)): up to 8 h | duration of decrease in blood glucose compared to db/db control mice ([1]; medium dose (10 μg/kg s.c.)): up to 8 h | Body fat change ([2]; 3 μg/kg s.c. once daily): -0.5 g | Overall weight change ([2]; 3 μg/kg s.c. once daily): -0.9 g | Body fat change ([2]; 10 μg/kg s.c. once daily): -2.5 g | Overall weight change ([2]; 10 μg/kg s.c. once daily): -3.0 g | Body fat change ([2]; 100 μg/kg s.c. once daily): -2.4 g | Overall weight change ([2]; 100 μg/kg s.c. once daily): -2.3 g
